# In patent US9156872B2, “2′-azido substituted nucleoside derivatives and methods of use thereof for the treatment of viral diseases” (priority 2011, dated 2015):
# pEC50: −log10 of the molar value.
# Test system: HCV replicon cells
# Test: Cell-based HCV replicon assay (replicon RNA by Taqman real time PCR)
# Conditions: HCV replicon 1b, cells harvested on day 3; read-out: 1b EC50
row,Compound,pEC50
1,C[C@@]1(N=[N+]=[N-])[C@@H]2OP(=O)(OC3CCC3)OC[C@H]2O[C@H]1n1ccc(=O)[nH]c1=O (stereo partly drawn) [Compound 84],4.29
2,"CCCOP1(=O)OC[C@H]2O[C@@H](n3ccc(=O)[nH]c3=O)[C@](C)(N=[N+]=[N-])[C@@H]2O1 (single isomer, unassigned) [Compound 565]",< 4.00
3,"CCCOP1(=O)OC[C@H]2O[C@@H](n3ccc(=O)[nH]c3=O)[C@](C)(N=[N+]=[N-])[C@@H]2O1 (single isomer, unassigned) [Compound 566]",< 4.00
4,"CCOc1nc(N)nc2c1ncn2[C@@H]1O[C@@H]2COP(=O)(OC3CCC3)O[C@H]2[C@@]1(C)N=[N+]=[N-] (single isomer, unassigned) [Compound 101]",7.00

# Same assay, conditions: Hepatitis C virus, 72 h, HCV replicon 1b, cells harvested on day 3; read-out: 1b EC50
row,Compound,pEC50
1,"COC(=O)[C@H](C)NP1(=O)OC[C@H]2O[C@@H](n3ccc(N)nc3=O)[C@](C)(N=[N+]=[N-])[C@@H]2O1 (single isomer, unassigned) [Compound 529]",4.23
2,CC(C)OP1(=O)OC[C@H]2O[C@@H](n3ccc(=O)[nH]c3=O)[C@](C)(N=[N+]=[N-])[C@@H]2O1 (stereo partly drawn) [Compound 43],< 4.00
3,CCOc1nc(N)nc2c1ncn2[C@@H]1O[C@@H]2COP(=O)(NC3CCCCC3)O[C@H]2[C@@]1(C)N=[N+]=[N-] (stereo partly drawn) [Compound 572],4.00

# Same assay, conditions: Hepatitis C virus, 72 h, read-out: 1b EC50
row,Compound,pEC50
1,"COc1nc(N)nc2c1ncn2[C@@H]1O[C@H](COP(=O)(N[C@@H](C)C(=O)OCC(C)C)Oc2ccc(Cl)cc2)[C@@H](O)[C@@]1(C)N=[N+]=[N-] (single isomer, unassigned) [Compound 295]",6.70
2,"COc1nc(N)nc2c1ncn2[C@@H]1O[C@H](COP(=O)(N[C@@H](C)C(=O)OC(C)C)Oc2ccc(F)cc2)[C@@H](O)[C@@]1(C)N=[N+]=[N-] (single isomer, unassigned) [Compound 269]",6.15
3,COC(=O)[C@H](C)NP(=O)(OC[C@H]1O[C@@H](n2cnc3c(OC)nc(N)nc32)[C@](C)(N=[N+]=[N-])[C@@H]1O)Oc1cccc2ccccc12 (stereo partly drawn) [Compound 57],6.40
4,"CCCOC(=O)[C@H](C)NP(=O)(OC[C@H]1O[C@@H](n2cnc3c(OC)nc(N)nc32)[C@](C)(N=[N+]=[N-])C1O)Oc1ccccc1 (single isomer, unassigned) [Compound 287]",6.05
5,"COc1nc(N)nc2c1ncn2[C@@H]1O[C@H](COP(=O)(N[C@@H](C)C(=O)OCC(C)C)Oc2ccccc2)C(O)[C@@]1(C)N=[N+]=[N-] (single isomer, unassigned) [Compound 276]",5.57
6,COC(=O)[C@H](C)NP(=O)(OC[C@H]1O[C@@H](n2cnc3c(OC)nc(N)nc32)[C@](C)(N=[N+]=[N-])[C@@H]1O)Oc1ccccc1Cl (stereo partly drawn) [Compound 77],6.22
7,"CCOc1nc(N)nc2c1ncn2[C@@H]1O[C@H](COP(=O)(N[C@@H](C)C(=O)OC)Oc2ccccc2)[C@@H](O)[C@@]1(C)N=[N+]=[N-] (single isomer, unassigned) [Compound 142]",6.30
8,COC(=O)[C@H](C)NP(=O)(OC[C@H]1O[C@@H](n2ccc(=O)[nH]c2=O)[C@](C)(N=[N+]=[N-])[C@@H]1O)Oc1ccc(Cl)cc1 (stereo partly drawn) [Compound 50],5.40
9,CCOc1nc(N)nc2c1ncn2[C@@H]1O[C@H](COP(=O)(N[C@@H](C)C(=O)OC)Oc2ccccc2)[C@@H](O)[C@@]1(C)N=[N+]=[N-] (stereo partly drawn) [Compound 9],6.10
10,COc1nc(N)nc2c1ncn2[C@@H]1O[C@H](COP(=O)(N[C@@H](C)C(=O)OC(C)C)Oc2ccccc2Cl)[C@@H](O)[C@@]1(C)N=[N+]=[N-] (stereo partly drawn) [Compound 240],5.24
11,CCCCOC(=O)[C@H](C)NP(=O)(OC[C@H]1O[C@@H](n2cnc3c(OCC)nc(N)nc32)[C@](C)(N=[N+]=[N-])[C@@H]1O)Oc1ccc(F)cc1 (stereo partly drawn) [Compound 366],6.40
12,"CCOC(=O)[C@H](C)NP(=O)(OC[C@H]1O[C@@H](n2cnc3c(OC)nc(N)nc32)[C@](C)(N=[N+]=[N-])[C@@H]1O)Oc1ccc(Cl)cc1 (single isomer, unassigned) [Compound 238]",5.92
13,CCOc1nc(N)nc2c1ncn2[C@@H]1O[C@H](COP(=O)(N[C@@H](C)C(=O)OC(C)C)Oc2ccc(Cl)c(Cl)c2)[C@@H](O)[C@@]1(C)N=[N+]=[N-] (stereo partly drawn) [Compound 348],5.30
14,CCOC(=O)c1cccc(OP(=O)(N[C@@H](C)C(=O)OC)OC[C@H]2O[C@@H](n3ccc(=O)[nH]c3=O)[C@](C)(N=[N+]=[N-])[C@@H]2O)c1 (stereo partly drawn) [Compound 222],8.00
15,CC(C)OC(=O)[C@H](C)NP(=O)(OC[C@H]1O[C@@H](n2cnc3c(N4CCC4)nc(N)nc32)[C@](C)(N=[N+]=[N-])[C@@H]1O)Oc1ccccc1 (stereo partly drawn) [Compound 392],5.25
16,CCOc1nc(N)nc2c1ncn2[C@@H]1O[C@H](COP(=O)(N[C@@H](C)C(=O)OC(C)C)Oc2ccccc2Cl)[C@@H](O)[C@@]1(C)N=[N+]=[N-] (stereo partly drawn) [Compound 59],5.00
17,CCOc1nc(N)nc2c1ncn2[C@@H]1O[C@H](COP(=O)(N[C@@H](C)C(=O)OC(C)C)Oc2ccc3c(c2)OCO3)[C@@H](O)[C@@]1(C)N=[N+]=[N-] (stereo partly drawn) [Compound 72],6.10
18,"COc1nc(N)nc2c1ncn2[C@@H]1O[C@H](COP(=O)(N[C@@H](C)C(=O)OC(C)C)Oc2ccc(Cl)cc2)[C@@H](O)[C@@]1(C)N=[N+]=[N-] (single isomer, unassigned) [Compound 293]",5.24
19,CCOc1nc(N)nc2c1ncn2[C@@H]1O[C@H](COP(=O)(N[C@@H](C)C(=O)OC)Oc2ccccc2Cl)[C@@H](O)[C@@]1(C)N=[N+]=[N-] (stereo partly drawn) [Compound 58],6.30
20,CCCCOC(=O)[C@H](C)NP(=O)(OC[C@H]1O[C@@H](n2ccc(=O)[nH]c2=O)[C@](C)(N=[N+]=[N-])[C@@H]1O)Oc1cccc2ccccc12 (stereo partly drawn) [Compound 6],5.96
21,"COC(=O)[C@H](C)NP(=O)(OC[C@H]1O[C@@H](n2ccc(N)nc2=O)[C@](C)(N=[N+]=[N-])[C@@H]1O)Oc1ccc(Cl)cc1 (single isomer, unassigned) [Compound 185]",5.54
22,C[C@H](NP(=O)(OC[C@H]1O[C@@H](n2ccc(=O)[nH]c2=O)[C@](C)(N=[N+]=[N-])[C@@H]1O)Oc1ccc2c(c1)OCO2)C(=O)OCc1ccccc1 (stereo partly drawn) [Compound 305],5.92
23,CCOC(=O)[C@H](C)NP(=O)(OC[C@H]1O[C@@H](n2ccc(=O)[nH]c2=O)[C@](C)(N=[N+]=[N-])[C@@H]1O)Oc1ccc(Cl)cc1 (stereo partly drawn) [Compound 49],5.28
24,CCOC(=O)[C@H](C)NP(=O)(OC[C@H]1O[C@@H](n2ccc(N)nc2=O)[C@](C)(N=[N+]=[N-])[C@@H]1O)Oc1ccc(Cl)cc1 (stereo partly drawn) [Compound 198],6.22

# Same assay, conditions: read-out: 1b EC50
row,Compound,pEC50
1,"CCCCOC(=O)[C@H](C)NP(=O)(OC[C@H]1O[C@@H](n2ccc(=O)[nH]c2=O)[C@](C)(N=[N+]=[N-])[C@@H]1O)Oc1ccccc1 (single isomer, unassigned) [Compound 169]",5.46
2,CCOC(=O)[C@H](C)NP(=O)(OC[C@H]1O[C@@H](n2ccc(=O)[nH]c2=O)[C@](C)(N=[N+]=[N-])[C@@H]1O)Oc1ccc(Cl)cc1 (stereo partly drawn) [Compound 323],5.28
3,"C[C@H](NP(=O)(OC[C@H]1O[C@@H](n2ccc(=O)[nH]c2=O)[C@](C)(N=[N+]=[N-])[C@@H]1O)Oc1ccccc1)C(=O)OCc1ccccc1 (single isomer, unassigned) [Compound 301]",5.57
4,CCOc1nc(N)nc2c1ncn2[C@@H]1O[C@H](COP(=O)(N[C@@H](C)C(=O)OCC(C)C)Oc2ccccc2)[C@@H](O)[C@@]1(C)N=[N+]=[N-] (stereo partly drawn) [Compound 61],6.10
5,CC(C)COC(=O)[C@H](C)NP(=O)(OC[C@H]1O[C@@H](n2ccc(=O)[nH]c2=O)[C@](C)(N=[N+]=[N-])[C@@H]1O)Oc1ccccc1 (stereo partly drawn) [Compound 38],6.52
6,"COC(=O)[C@H](C)NP(=O)(OC[C@H]1O[C@@H](n2ccc(N)nc2=O)[C@](C)(N=[N+]=[N-])[C@@H]1O)Oc1ccc(Cl)cc1 (single isomer, unassigned) [Compound 186]",5.70
7,CC(C)OC(=O)[C@H](C)NP(=O)(OC[C@H]1O[C@@H](n2ccc(N)nc2=O)[C@](C)(N=[N+]=[N-])[C@@H]1O)Oc1ccccc1Cl (stereo partly drawn) [Compound 95],5.35
8,"COc1nc(N)nc2c1ncn2[C@@H]1O[C@H](COP(=O)(N[C@@H](C)C(=O)OCC(C)(C)C)Oc2ccccc2)C(O)[C@@]1(C)N=[N+]=[N-] (single isomer, unassigned) [Compound 291]",5.62
9,C[C@H](NP(=O)(OC[C@H]1O[C@@H](n2ccc(N)nc2=O)[C@](C)(N=[N+]=[N-])[C@@H]1O)Oc1ccccc1)C(=O)OC1CCCC1 (stereo partly drawn) [Compound 205],4.82
10,CCOc1nc(N)nc2c1ncn2[C@@H]1O[C@H](COP(=O)(N[C@@H](C)C(=O)OCC(C)C)Oc2ccccc2)[C@@H](O)[C@@]1(C)N=[N+]=[N-] (stereo partly drawn) [Compound 62],6.10
11,"COC(=O)[C@H](C)NP(=O)(OC[C@H]1O[C@@H](n2ccc(N)nc2=O)[C@](C)(N=[N+]=[N-])[C@@H]1O)Oc1ccccc1Cl (single isomer, unassigned) [Compound 331]",5.00
12,"CCOc1nc(N)nc2c1ncn2[C@@H]1O[C@H](COP(=O)(N[C@@H](C)C(=O)OC)Oc2ccc(F)cc2)[C@@H](O)[C@@]1(C)N=[N+]=[N-] (single isomer, unassigned) [Compound 174]",6.30
13,"CCCCOC(=O)[C@H](C)NP(=O)(OC[C@H]1O[C@@H](n2cnc3c(OCC)nc(N)nc32)[C@](C)(N=[N+]=[N-])[C@@H]1O)Oc1ccccc1 (single isomer, unassigned) [Compound 168]",5.82
14,"CCOc1nc(N)nc2c1ncn2[C@@H]1O[C@H](COP(=O)(N[C@@H](C)C(=O)OC)Oc2ccc(Cl)cc2)[C@@H](O)[C@@]1(C)N=[N+]=[N-] (single isomer, unassigned) [Compound 312]",5.66
15,"COC(=O)c1ccccc1OP(=O)(N[C@@H](C)C(=O)OC)OC[C@H]1O[C@@H](n2ccc(=O)[nH]c2=O)[C@](C)(N=[N+]=[N-])[C@@H]1O (single isomer, unassigned) [Compound 228]",5.89
16,"CC(C)OC(=O)[C@H](C)NP(=O)(OC[C@H]1O[C@@H](n2ccc(N)nc2=O)[C@](C)(N=[N+]=[N-])[C@@H]1O)Oc1ccccc1Cl (single isomer, unassigned) [Compound 332]",4.70
17,COC(=O)[C@H](C)NP(=O)(OC[C@H]1O[C@@H](n2ccc(=O)[nH]c2=O)[C@](C)(N=[N+]=[N-])[C@@H]1O)Oc1ccccc1Cl (stereo partly drawn) [Compound 236],5.19
